Format in all cases: in vivo
Data set [1] deals with Amarantus retroflexus (AR). In words: Herbicidal activity in pre-emergence. To be noted: dose 500 g/ha, 28 days after treatment, damage scale 0-5 vs blank. The method, then:
(§1) Determination of the herbicidal activity and phytotoxicity in pre-emergence. The herbicidal activity of the compounds of the invention in pre-emergence was evaluated according to the following operating procedure. The vegetable species of interest (weeds or crops) were planted in vases having a diameter of over 10 cm, a height of 10 cm and containing sandy soil. 10 vases were used for each vegetable species. The vases were divided into a further two groups each containing 5 vases for each weed or crop. 24 hours after planting, the vases were dampened with a light shower. An hour after wetting, the first group of vases was treated with a hydro-acetone dispersion containing acetone at 10% v, the product to be evaluated at the desired concentration and Tween 20 at 0.5%. The second group was only treated with a hydroacetone solution containing acetone at 10% by volume and Tween 20 at 0.5%, and was used as a comparison (blank). After the treatment, all the vases were uniformly watered and kept in a conditioned environment under the following environmental conditions: temperature: 24° C. relative humidity: 60% photoperiod: 16 hours light intensity: 10,000 lux 28 days after treatment, the herbicidal activity was evaluated on the basis of the following scale of values referring to the percentage of damage measured on the treated plants with respect to those not treated (blank): Table 3 indicates the results obtained with compounds C-1, C-2 and C-3, evaluated at a dose of 500 g/ha on the following vegetable species: Amarantus retroflexus (AR), Capsella bursa pastoris (CP), Chenopodium album (CA), Galium aparine (GA), Matricaria chamomilla (MC), Papaver rhoeas (PR), Portulaca oleracea (PO), Stellaria media (SM), Alopecurus myosuroides (AM), Panicum dicothomiflorum (PD), maize (M), wheat (F).

The test system of data set [2] is Papaver rhoeas (PR). Put plainly: Herbicidal activity in pre-emergence. To be noted: dose 500 g/ha, 28 days after treatment, damage scale 0-5 vs blank. The procedure:
as §1

The test system of data set [3] is Stellaria media (SM). In words: Herbicidal activity in pre-emergence. To be noted: dose 500 g/ha, 28 days after treatment, damage scale 0-5 vs blank. The method, then: as §1
In data set [4] the test system is Matricaria chamomilla (MC). In words: Herbicidal activity in pre-emergence. To be noted: dose 500 g/ha, 28 days after treatment, damage scale 0-5 vs blank. The method, then: as §1
The test system of data set [5] is Chenopodium album (CA). Put plainly: Herbicidal activity in pre-emergence. To be noted: dose 500 g/ha, 28 days after treatment, damage scale 0-5 vs blank. The procedure:
as §1

Data set [6] concerns Panicum dicothomiflorum (PD). Put plainly: Herbicidal activity in pre-emergence. To be noted: dose 500 g/ha, 28 days after treatment, damage scale 0-5 vs blank. The procedure:
as §1

Data set [7] concerns Alopecurus myosuroides (AM). Put plainly: Herbicidal activity in pre-emergence. To be noted: dose 500 g/ha, 28 days after treatment, damage scale 0-5 vs blank. The procedure:
as §1

For data set [8], the system named is Portulaca oleracea (PO). Put plainly: Herbicidal activity in pre-emergence. To be noted: dose 500 g/ha, 28 days after treatment, damage scale 0-5 vs blank. The procedure:
as §1

For data set [9], the system named is Capsella bursa pastoris (CP). Put plainly: Herbicidal activity in pre-emergence. The conditions noted are these: dose 500 g/ha, 28 days after treatment, damage scale 0-5 vs blank. The method, then: as §1
For data set [10], the system named is Galium aparine (GA). Put plainly: Herbicidal activity in pre-emergence. The conditions noted are these: dose 500 g/ha, 28 days after treatment, damage scale 0-5 vs blank. The procedure:
as §1

In data set [11] the test system is wheat (F). Put plainly: Phytotoxicity in pre-emergence. The conditions noted are these: wheat (crop), dose 500 g/ha, 28 days after treatment, damage scale 0-5 vs blank. The method, then: (§2) Determination of the herbicidal activity and phytotoxicity in pre-emergence. The herbicidal activity of the compounds of the invention in pre-emergence was evaluated according to the following operating procedure. The vegetable species of interest (weeds or crops) were planted in vases having a diameter of over 10 cm, a height of 10 cm and containing sandy soil. 10 vases were used for each vegetable species. The vases were divided into a further two groups each containing 5 vases for each weed or crop. 24 hours after planting, the vases were dampened with a light shower. An hour after wetting, the first group of vases was treated with a hydro-acetone dispersion containing acetone at 10% v, the product to be evaluated at the desired concentration and Tween 20 at 0.5%. The second group was only treated with a hydroacetone solution containing acetone at 10% by volume and Tween 20 at 0.5%, and was used as a comparison (blank). […]

Data set [12] deals with maize (M). Put plainly: Phytotoxicity in pre-emergence. The conditions noted are these: maize (crop), dose 500 g/ha, 28 days after treatment, damage scale 0-5 vs blank. The method, then: as §2

SMILES strings stand for the structures.

Regarding `Cc1ccc(NC(=O)C2CC2)c(OCc2cccc(C(F)(F)F)c2)c1` [C-1, N-[4-methyl-2-(3-trifluoromethylphenyl)-methoxyphenyl]cyclopropanecarboxamide], the “Herbicidal activity in pre-emergence, AR” value in data set [1] was 5 (5=90% damage—death of the plant). Moreover, in [2], the “Herbicidal activity in pre-emergence, PR” value was 5 (5=90% damage—death of the plant). Besides, the “Herbicidal activity in pre-emergence, SM” value in data set [3] was 5 (5=90% damage—death of the plant). Also, in data set [4], the “Herbicidal activity in pre-emergence, MC” value is listed as 5 (5=90% damage—death of the plant). Moreover, the “Herbicidal activity in pre-emergence, CA” value in data set [5] was 5 (5=90% damage—death of the plant). Moreover, in data set [6], the “Herbicidal activity in pre-emergence, PD” value is listed as 5 (5=90% damage—death of the plant). In addition, the “Herbicidal activity in pre-emergence, AM” value in data set [7] is reported as 5 (5=90% damage—death of the plant). Moreover, in [8], the “Herbicidal activity in pre-emergence, PO” value was 5 (5=90% damage—death of the plant). The “Herbicidal activity in pre-emergence, CP” value in data set [9] is 5 (5=90% damage—death of the plant). For the same compound, the “Herbicidal activity in pre-emergence, GA” value in data set [10] is 5 (5=90% damage—death of the plant).
Turning to `Cc1ccc(NC(=O)C2CC2)c(COc2cccc(C(F)(F)F)c2)c1` [C-2, N-[4-methyl-2-(3-trifluoromethylphenoxy)methylphenyl]cyclopropanecarboxamide], the “Herbicidal activity in pre-emergence, AR” value in data set [1] is on record as 5 (5=90% damage—death of the plant). In addition, the “Herbicidal activity in pre-emergence, PR” value in data set [2] is reported as 5 (5=90% damage—death of the plant). In [3], the “Herbicidal activity in pre-emergence, SM” value is 5 (5=90% damage—death of the plant). Also, the “Herbicidal activity in pre-emergence, MC” value in data set [4] is given as 5 (5=90% damage—death of the plant). Moreover, the “Herbicidal activity in pre-emergence, CA” value in [5] was 5 (5=90% damage—death of the plant). Besides, the “Herbicidal activity in pre-emergence, PD” value in data set [6] is 5 (5=90% damage—death of the plant). In addition, the “Herbicidal activity in pre-emergence, AM” value in data set [7] is 5 (5=90% damage—death of the plant). Further, in data set [8], the “Herbicidal activity in pre-emergence, PO” value is 5 (5=90% damage—death of the plant). In addition, the “Herbicidal activity in pre-emergence, CP” value in data set [9] is reported as 5 (5=90% damage—death of the plant). Also, the “Herbicidal activity in pre-emergence, GA” value in [10] was 5 (5=90% damage—death of the plant). Further, the “Herbicidal activity (phytotoxicity) in pre-emergence, F” value in data set [11] is 0 (0=0-9% damage). The “Herbicidal activity (phytotoxicity) in pre-emergence, M” value in data set [12] is reported as 0 (0=0-9% damage).
